Experiments:
[1] = tested on: TRZAWR (Wheat, Winter, cv Riband); assay: Postemergence herbicidal evaluation; format: in vivo, Triticum aestivum; conditions: for TRZAWR herbicidal rating: postemergence
In short: (§1)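 Scores (0–9) reflect plant stand, vigor, malformation, size, chlorosis and general appearance relative to control, read 4 to 5 weeks after treatment and averaged where tests were repeated. Application: about 0.0156–0.500 kg/ha sprayed at 40 psi onto two-week seedlings.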

[2] = tested on: CYPIR (Rice Flatsedge); assay: Preemergence weed control under flooded paddy conditions; format: in vivo, Cyperus iria; conditions: rated 3-4 weeks after treatment
In short: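 Ratings on a 0-9 visual scale cover stand, vigor, malformation, size, chlorosis and overall appearance relative to a control, taken three to four weeks post-treatment. Application was into flood water over freshly sown silt loam at roughly 0.0313 to 0.500 kg/ha.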

[3] = tested on: CYPSE (Flatsedge); assay: Postemergence weed control under flooded paddy conditions; format: in vivo, Cyperus serotinus; conditions: postemergence weeds
In short: (§2)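 Injury ratings (0–9 scale covering stand, vigor, malformation, size, chlorosis and overall appearance versus control) were made three to four weeks after treatment. Test material, about 0.0313 to 0.500 kg/ha a.i. in 50/50 v/v aqueous/acetone, was added to flood water 1.5 to 3 cm deep over 3 to 5 cm weeds and 1.5 to 2.5 leaf rice.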

[4] = tested on: GLXMAW (Soybean, Williams); assay: Postemergence herbicidal evaluation; format: in vivo, Glycine max, (L.) Merr. cv Williams; conditions: for GLXMAW herbicidal rating: postemergence
In short: as §1

[5] = tested on: ABUTH (Velvetleaf); assay: Postemergence herbicidal evaluation; format: in vivo, Abutilon theophrasti; conditions: for ABUTH herbicidal rating: postemergence
In short: as §1

[6] = tested on: SETVI (Foxtail, Green); assay: Postemergence herbicidal evaluation; format: in vivo, Setaria viridis; conditions: for SETVI herbicidal rating: postemergence
In short: as §1

[7] = tested on: ZEAMX (Corn, Field); assay: Postemergence herbicidal evaluation; format: in vivo, Zea mays; conditions: for ZEAMX herbicidal rating: postemergence
In short: as §1

[8] = tested on: SAGPY (Arrowhead (Pygmaea)); assay: Postemergence weed control under flooded paddy conditions; format: in vivo, Sagittaria pygmaea; conditions: postemergence weeds
In short: as §2

[9] = tested on: ORYSAT (Rice, Tebonnet); assay: Postemergence herbicidal evaluation; format: in vivo, Oryza sativa, (L.) Tebonnet; conditions: for ORYSAT herbicidal rating: postemergence
In short: as §1

[10] = tested on: AMBEL (Ragweed, Common); assay: Preemergence herbicidal evaluation; format: in vivo, Ambrosia artemisifolia; conditions: rated 4-5 weeks after treatment; for AMBEL rating: preemergence, 0-9 scale
In short: (§3)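 Visual 0-9 rating vs control (stand, vigor, malformation, size, chlorosis, overall appearance), scored 4-5 wk after spraying. Seeded soil cups were treated preemergence with compound in aqueous acetone, ~0.0156-0.500 kg/ha equivalent.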

[11] = tested on: GALAP (Galium); assay: Preemergence herbicidal evaluation; format: in vivo, Galium aparine; conditions: rated 4-5 weeks after treatment; for GALAP rating: preemergence, 0-9 scale
In short: as §3

[12] = tested on: SETVI (Foxtail, Green); assay: Preemergence herbicidal evaluation; format: in vivo, Setaria viridis; conditions: rated 4-5 weeks after treatment; for SETVI rating: preemergence, 0-9 scale
In short: as §3

[13] = tested on: CHEAL (Lambsquarters, Common); assay: Postemergence herbicidal evaluation; format: in vivo, Chenopodium album; conditions: for CHEAL herbicidal rating: postemergence
In short: as §1

[14] = tested on: ECHORC (Watergrass (Calif.)); assay: Postemergence weed control under flooded paddy conditions; format: in vivo, Echinochloa oryzoides; conditions: postemergence weeds
In short: as §2

[15] = rate 0.0313 kg/ha, 3-4 weeks after treatment
[16] = rate 0.0625 kg/ha, 3-4 weeks after treatment
[17] = rate 0.1250 kg/ha, 3-4 weeks after treatment
[18] = rate 0.2500 kg/ha, 3-4 weeks after treatment
[19] = Rate 0.0313 kg/ha, rated 3 to 4 weeks after treatment
[20] = Rate 0.0625 kg/ha, rated 3 to 4 weeks after treatment
[21] = Rate 0.1250 kg/ha, rated 3 to 4 weeks after treatment
[22] = Rate 0.2500 kg/ha, rated 3 to 4 weeks after treatment

## CCOC(=O)CN1C(=O)C(CC(=O)OCc2ccccc2)OC1=Nc1cc(-n2c(=O)cc(C(F)(F)F)n(C)c2=O)c(F)cc1Cl (stereo not drawn) [Compound 40, 2-{{2-Chloro-5-[3,6-dihydro-3-methyl-2,6-dioxo-4-(trifluoromethyl)-1(2H)-pyrimidinyl]-4-fluorophenyl}imino}-4-oxo-3,5-oxazolidinediacetic acid, 5-benzyl ethyl ester]
[1]; Rate 0.0158 kg/ha
  Postemergence herbicidal rating TRZAWR: 4.0
[1]; Rate 0.0315 kg/ha
  Postemergence herbicidal rating TRZAWR: 4.0
[1]; Rate 0.0630 kg/ha
  Postemergence herbicidal rating TRZAWR: 4.5
[2]; 0.0313 kg/ha
  Herbicidal rating CYPIR: 0.0
[2]; 0.0625 kg/ha
  Herbicidal rating CYPIR: 0.0
[2]; 0.1250 kg/ha
  Herbicidal rating CYPIR: 0.0
[2]; 0.2500 kg/ha
  Herbicidal rating CYPIR: 0.0
[3]; [15]
  Herbicidal rating CYPSE: 0.0
[3]; [16]
  Herbicidal rating CYPSE: 0.0
[3]; [17]
  Herbicidal rating CYPSE: 0.0
[3]; [18]
  Herbicidal rating CYPSE: 6.0
[4]; Rate 0.0158 kg/ha
  Postemergence herbicidal rating GLXMAW: 7.0
[4]; Rate 0.0315 kg/ha
  Postemergence herbicidal rating GLXMAW: 9.0
[4]; Rate 0.0630 kg/ha
  Postemergence herbicidal rating GLXMAW: 8.0
[5]; Rate 0.0158 kg/ha
  Postemergence herbicidal rating ABUTH: 9.0
[5]; Rate 0.0315 kg/ha
  Postemergence herbicidal rating ABUTH: 9.0
[5]; Rate 0.0630 kg/ha
  Postemergence herbicidal rating ABUTH: 9.0
[6]; Rate 0.0158 kg/ha
  Postemergence herbicidal rating SETVI: 1.0
[6]; Rate 0.0315 kg/ha
  Postemergence herbicidal rating SETVI: 7.0
[6]; Rate 0.0630 kg/ha
  Postemergence herbicidal rating SETVI: 9.0
[7]; Rate 0.0158 kg/ha
  Postemergence herbicidal rating ZEAMX: 7.0
[7]; Rate 0.0315 kg/ha
  Postemergence herbicidal rating ZEAMX: 7.5
[7]; Rate 0.0630 kg/ha
  Postemergence herbicidal rating ZEAMX: 8.5
[8]; [15]
  Herbicidal rating SAGPY: 0.0
[8]; [16]
  Herbicidal rating SAGPY: 0.0
[8]; [17]
  Herbicidal rating SAGPY: 0.0
[8]; [18]
  Herbicidal rating SAGPY: 0.0
[9]; Rate 0.0158 kg/ha
  Postemergence herbicidal rating ORYSAT: 2.5
[9]; Rate 0.0315 kg/ha
  Postemergence herbicidal rating ORYSAT: 3.0
[9]; Rate 0.0630 kg/ha
  Postemergence herbicidal rating ORYSAT: 3.0
[10]; rate 0.0313 kg/ha
  Preemergence herbicidal rating AMBEL: 0.0
[10]; rate 0.0625 kg/ha
  Preemergence herbicidal rating AMBEL: 2.0
[10]; rate 0.1250 kg/ha
  Preemergence herbicidal rating AMBEL: 6.0
[10]; rate 0.2500 kg/ha
  Preemergence herbicidal rating AMBEL: 6.0
[11]; rate 0.0313 kg/ha
  Preemergence herbicidal rating GALAP: 0.0
[11]; rate 0.0625 kg/ha
  Preemergence herbicidal rating GALAP: 0.0
[11]; rate 0.1250 kg/ha
  Preemergence herbicidal rating GALAP: 0.0
[11]; rate 0.2500 kg/ha
  Preemergence herbicidal rating GALAP: 0.0
[12]; rate 0.0313 kg/ha
  Preemergence herbicidal rating SETVI: 0.0
[12]; rate 0.0625 kg/ha
  Preemergence herbicidal rating SETVI: 0.0
[12]; rate 0.1250 kg/ha
  Preemergence herbicidal rating SETVI: 6.0
[12]; rate 0.2500 kg/ha
  Preemergence herbicidal rating SETVI: 6.0
[13]; Rate 0.0158 kg/ha
  Postemergence herbicidal rating CHEAL: 2.0
[13]; Rate 0.0315 kg/ha
  Postemergence herbicidal rating CHEAL: 7.0
[13]; Rate 0.0630 kg/ha
  Postemergence herbicidal rating CHEAL: 9.0
[14]; [15]
  Herbicidal rating ECHORC: 5.0
[14]; [16]
  Herbicidal rating ECHORC: 5.0
[14]; [17]
  Herbicidal rating ECHORC: 5.0
[14]; [18]
  Herbicidal rating ECHORC: 9.0

## C=CCN1C(=O)C(CC(=O)NOC)SC1=Nc1cc(-n2c(=O)cc(C(F)(F)F)n(C)c2=O)c(F)cc1Cl (stereo not drawn) [Compound 85]
[1]; rate 0.0156 kg/ha
  TRZAWR herbicidal rating: 3.0
[1]; rate 0.0313 kg/ha
  TRZAWR herbicidal rating: 3.5
[1]; rate 0.0625 kg/ha
  TRZAWR herbicidal rating: 4.5
[1]; rate 0.1250 kg/ha
  TRZAWR herbicidal rating: 5.0
[2]; 0.0313 kg/ha
  CYPIR herbicidal effect rating: 3.0
[2]; 0.0625 kg/ha
  CYPIR herbicidal effect rating: 7.0
[2]; 0.1250 kg/ha
  CYPIR herbicidal effect rating: 9.0
[2]; 0.2500 kg/ha
  CYPIR herbicidal effect rating: 9.0
[3]; [19]
  Herbicidal rating CYPSE: 0.0
[3]; [20]
  Herbicidal rating CYPSE: 2.0
[3]; [21]
  Herbicidal rating CYPSE: 2.0
[3]; [22]
  Herbicidal rating CYPSE: 9.0
[4]; rate 0.0156 kg/ha
  GLXMAW herbicidal rating: 4.5
[4]; rate 0.0313 kg/ha
  GLXMAW herbicidal rating: 6.0
[4]; rate 0.0625 kg/ha
  GLXMAW herbicidal rating: 6.0
[4]; rate 0.1250 kg/ha
  GLXMAW herbicidal rating: 7.5
[5]; rate 0.0156 kg/ha
  ABUTH herbicidal rating: 9.0
[5]; rate 0.0313 kg/ha
  ABUTH herbicidal rating: 9.0
[5]; rate 0.0625 kg/ha
  ABUTH herbicidal rating: 9.0
[5]; rate 0.1250 kg/ha
  ABUTH herbicidal rating: 9.0
[6]; rate 0.0156 kg/ha
  SETVI herbicidal rating: 0.0
[6]; rate 0.0313 kg/ha
  SETVI herbicidal rating: 0.0
[6]; rate 0.0625 kg/ha
  SETVI herbicidal rating: 9.0
[6]; rate 0.1250 kg/ha
  SETVI herbicidal rating: 9.0
[7]; rate 0.0156 kg/ha
  ZEAMX herbicidal rating: 4.0
[7]; rate 0.0313 kg/ha
  ZEAMX herbicidal rating: 6.5
[7]; rate 0.0625 kg/ha
  ZEAMX herbicidal rating: 7.5
[7]; rate 0.1250 kg/ha
  ZEAMX herbicidal rating: 8.5
[8]; [19]
  Herbicidal rating SAGPY: 3.0
[8]; [20]
  Herbicidal rating SAGPY: 3.0
[8]; [21]
  Herbicidal rating SAGPY: 9.0
[8]; [22]
  Herbicidal rating SAGPY: 9.0
[9]; rate 0.0156 kg/ha
  ORYSAT herbicidal rating: 1.0
[9]; rate 0.0313 kg/ha
  ORYSAT herbicidal rating: 1.0
[9]; rate 0.0625 kg/ha
  ORYSAT herbicidal rating: 1.5
[9]; rate 0.1250 kg/ha
  ORYSAT herbicidal rating: 2.5
[10]; 0.0156 kg/ha
  AMBEL rating: 0.0
[10]; 0.0313 kg/ha
  AMBEL rating: 0.0
[10]; 0.0625 kg/ha
  AMBEL rating: 3.0
[10]; 0.1250 kg/ha
  AMBEL rating: 7.0
[10]; 0.2500 kg/ha
  AMBEL rating: 9.0
[10]; 0.5000 kg/ha
  AMBEL rating: 9.0
[11]; 0.0156 kg/ha
  GALAP rating: 0.0
[11]; 0.0313 kg/ha
  GALAP rating: 0.0
[11]; 0.0625 kg/ha
  GALAP rating: 0.0
[11]; 0.1250 kg/ha
  GALAP rating: 4.0
[11]; 0.2500 kg/ha
  GALAP rating: 6.0
[11]; 0.5000 kg/ha
  GALAP rating: 9.0
[12]; 0.0156 kg/ha
  SETVI rating: 0.0
[12]; 0.0313 kg/ha
  SETVI rating: 0.0
[12]; 0.0625 kg/ha
  SETVI rating: 0.0
[12]; 0.1250 kg/ha
  SETVI rating: 0.0
[12]; 0.2500 kg/ha
  SETVI rating: 9.0
[12]; 0.5000 kg/ha
  SETVI rating: 9.0
[13]; rate 0.0156 kg/ha
  CHEAL herbicidal rating: 2.0
[13]; rate 0.0313 kg/ha
  CHEAL herbicidal rating: 4.0
[13]; rate 0.0625 kg/ha
  CHEAL herbicidal rating: 4.0
[13]; rate 0.1250 kg/ha
  CHEAL herbicidal rating: 9.0
[14]; [19]
  Herbicidal rating ECHORC: 4.0
[14]; [20]
  Herbicidal rating ECHORC: 5.0
[14]; [21]
  Herbicidal rating ECHORC: 7.0
[14]; [22]
  Herbicidal rating ECHORC: 9.0

— patent US20020137929A1, “1 - (3-heterocyclylphenyl) isothiourea, -isourea, -guanidine and -amidine herbicidal agents” (Intellectual Property Department, BASF Aktiengesellschaft, priority 1998, published 2002)
